The target in one series is T1, cyclophilin A (Cyp A) (Homo sapiens, UniProt P62937).
T1 construct: purchased Sigma C3805
Nature of the series: Protease-free PPIase assay, cyclophilin A. The format is biochemical. Summed up:
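Protease-free cis-trans isomerisation: 2 nM recombinant human cyclophilin A with 60 μM succinimide-peptide substrate in 35 mM HEPES pH 7.8 plus DTT, at 10.0 °C, max 0.5% DMSO. Absorbance at 330 nm was fitted to first-order kinetics, background subtracted, and catalytic rates versus inhibitor concentration gave Ki.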

Series [1] in a line: Water solubility assay (pH 7.8 buffer). It counts as physicochemical. Summed up: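 DMSO stocks were diluted into 35 mM HEPES pH 7.8 to final 0–100 μM with 1% DMSO, in triplicate. Plates were shaken 18 h at 25 °C, then precipitation was detected as increased absorbance at 650 nm. Values give the concentration (μM) at which the compound remains in solution.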
The next series concerns the target cyclophilin D (Cyp D) (Homo sapiens, UniProt P30405). As to the kind of experiment: Protease-free PPIase assay, cyclophilin D. It counts as biochemical. Summed up: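 Cis-trans isomerization of a succinimide-peptide substrate (60 µM final) by 2 nM enzyme was followed at 330 nm in 35 mM HEPES pH 7.8 with 50 µM DTT, stirred at 10.0 °C, DMSO ≤0.5%. First-order rate constants minus background were fitted against inhibitor concentration to give Ki.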

Where [2] appears, read: protease-free PPIase assay, class symbols, read-out: CypA Ki.
Setting [3] is: 35 mM HEPES buffer, 35 mM HEPES pH 7.8, 1% DMSO, 25° C., 18 h, concentration at which compound remains in solution, read-out: Solubility.
The mark [4] stands for this setting: protease-free PPIase assay, class symbols, read-out: CypD Ki.

Structures are written as SMILES. Converted amounts (≈) assume the structure as drawn. Where two headings read alike, the source gives them in different places. Numbered stars: 1 amine (or outer) side, 2 acyl side, 3 side chain; on linkers, the order of the positions; unused ones are H or OH. Square brackets hold non-standard residues; d marks the D form. Peptide text beside a SMILES is read from it. X13 = C[C@H](CCN(Cc1ccccn1)Cc1ccccn1)[C@@H](O)[C@H](C(=O)[*:2])N(C)[*:1]; X19 = C[C@H](CCN1CCCC(C(F)(F)F)C1)[C@@H](O)[C@H](C(=O)[*:2])N(C)[*:1]; X10 = Cc1cccc(/C=C/C[C@@H](C)[C@@H](O)[C@H](C(=O)[*:2])N(C)[*:1])n1; X20 = C[C@H](CCN1CCC(F)(F)CC1)[C@@H](O)[C@H](C(=O)[*:2])N(C)[*:1]; X24 = C[C@H](CCN(C)CC1COCCO1)[C@@H](O)[C@H](C(=O)[*:2])N(C)[*:1]; X23 = COC1CN(CC[C@@H](C)[C@@H](O)[C@H](C(=O)[*:2])N(C)[*:1])C1; X18 = C[C@H](CCNCc1ccccc1)[C@@H](O)[C@H](C(=O)[*:2])N(C)[*:1]; X11 = C[C@H](CCN(C)CCC#N)[C@@H](O)[C@H](C(=O)[*:2])N(C)[*:1]; X16 = C[C@H](CCN1CCOCC1)[C@@H](O)[C@H](C(=O)[*:2])N(C)[*:1]; d(aThr) = C[C@@H](O)[C@@H](N)C(=O)O; NMeL = CN[C@@H](CC(C)C)C(=O)O; dNMeL = CN[C@H](CC(C)C)C(=O)O; dNMeV = CN[C@@H](C(=O)O)C(C)C; Hiv = CC(C)[C@H](O)C(=O)O; dAbu = CC[C@@H](N)C(=O)O; Sar = CNCC(=O)O A value given as a limit tells only on which side of the number the result lay.

cyclophilin D (Cyp D), sequence (P30405 30-207): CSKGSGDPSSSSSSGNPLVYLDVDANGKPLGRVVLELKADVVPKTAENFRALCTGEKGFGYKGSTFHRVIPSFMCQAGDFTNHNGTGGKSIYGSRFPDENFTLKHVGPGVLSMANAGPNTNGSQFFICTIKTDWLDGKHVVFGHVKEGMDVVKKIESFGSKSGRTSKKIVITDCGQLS
T1 sequence (P62937 whole entry): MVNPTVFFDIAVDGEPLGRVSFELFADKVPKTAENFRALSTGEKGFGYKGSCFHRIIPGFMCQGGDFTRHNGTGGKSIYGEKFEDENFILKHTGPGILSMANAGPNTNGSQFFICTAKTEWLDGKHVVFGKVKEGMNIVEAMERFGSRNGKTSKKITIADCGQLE

Usually Ki stands for the equilibrium dissociation constant of an inhibitor or competing ligand from its target. Usually solubility stands for the dissolved amount per volume that the medium holds. Consider `CC[C@H]1NC(=O)[C@@H]([C@H](O)[C@H](C)C/C=C/c2cccc(C)n2)N(C)C(=O)[C@@H](C(C)C)N(C)C(=O)[C@@H](CC(C)C)NC(=O)[C@@H](CC(C)C)N(C)C(=O)[C@H](C(C)C)OC(=O)[C@@H](C)NC(=O)[C@@H](CC(C)C)N(C)C(=O)[C@@H](CC(C)C)NC(=O)[C@H](CC(C)C)N(C)C(=O)CN(C)C1=O` [Example 19, cyclo-[(3R,4R,5S)-4-(hydroxy)-3-methyl-5-(methylamino)-1-(6-methyl-pyridin-2-yl)-hept-1-enoic acid-Abu-Sar-MeLeu-Leu-MeLeu-Ala-D-Hiv-MeLeu-Leu-MeVal]] (cyclo([Hiv][dNMeL][dL][dNMeV][X10][dAbu][Sar][NMeL][dL][dNMeL][dA])), for which the Ki on cyclophilin A (Cyp A) and at cyclophilin D (Cyp D) was 1 to 25 nM throughout. The molecule also had a solubility at 18 h in series [1] (pH 7.8) of 10 to 25 µM (≈ 13.1 to 32.7 µg/mL).
For the molecule `COC1CN(CC[C@@H](C)[C@@H](O)[C@@H]2C(=O)N[C@H]([C@@H](C)O)C(=O)N(C)CC(=O)N(C)[C@@H](CC(C)C)C(=O)N[C@H](CC(C)C)C(=O)N(C)[C@H](CC(C)C)C(=O)N[C@H](C)C(=O)O[C@@H](C(C)C)C(=O)N(C)[C@H](CC(C)C)C(=O)N[C@H](CC(C)C)C(=O)N(C)[C@H](C(C)C)C(=O)N2C)C1` [Example 11, cyclo-{(3R,4R,5S)-4-(hydroxy)-3-methyl-5-(methylamino)-1-N-(3-methoxy-azetidinyl)-hexanoic acid-Thr-Sar-MeLeu-Leu-MeLeu-Ala-D-Hiv-MeLeu-Leu-MeVal}] (cyclo([Hiv][dNMeL][dL][dNMeV][X23][d(aThr)][Sar][NMeL][dL][dNMeL][dA])), the Ki on cyclophilin A (Cyp A) and on cyclophilin D (Cyp D) was 1 to 25 nM throughout. In addition, the solubility at 18 h in series [1] (pH 7.8) is greater than 100 µM.
For the molecule `CC(C)C[C@@H]1C(=O)N[C@H](CC(C)C)C(=O)N(C)[C@H](C(C)C)C(=O)N(C)[C@H]([C@H](O)[C@H](C)CCN2CCCC(C(F)(F)F)C2)C(=O)N[C@H]([C@@H](C)O)C(=O)N(C)CC(=O)N(C)[C@@H](CC(C)C)C(=O)N[C@H](CC(C)C)C(=O)N(C)[C@H](CC(C)C)C(=O)N[C@H](C)C(=O)O[C@@H](C(C)C)C(=O)N1C` (stereo partly drawn) [Example 9, cyclo-{(3R,4R,5S)-4-(hydroxy)-3-methyl-5-(methylamino)-1-N-[3-trifluoromethyl-piperidinyl]-hexanoic acid-Thr-Sar-MeLeu-Leu-MeLeu-Ala-D-Hiv-MeLeu-Leu-MeVal}] (cyclo([Hiv][dNMeL][dL][dNMeV][X19][d(aThr)][Sar][NMeL][dL][dNMeL][dA])), the Ki at cyclophilin A (Cyp A) (setting [2]) and on cyclophilin D (Cyp D) (setting [4]) was 1 to 25 nM throughout. In addition, the solubility at 18 h in series [1] (setting [3]) lay in the range of 10 to 25 µM (≈ 13.7 to 34.3 µg/mL).
Regarding `CC(C)C[C@@H]1C(=O)N[C@H](CC(C)C)C(=O)N(C)[C@H](C(C)C)C(=O)N(C)[C@H]([C@H](O)[C@H](C)CCNCc2ccccc2)C(=O)N[C@H]([C@@H](C)O)C(=O)N(C)CC(=O)N(C)[C@@H](CC(C)C)C(=O)N[C@H](CC(C)C)C(=O)N(C)[C@H](CC(C)C)C(=O)N[C@H](C)C(=O)O[C@@H](C(C)C)C(=O)N1C` [Example 35, cyclo-[(3R,4R,5S)-1-benzylamino-3-methyl-5-methylamino-4-hydroxy-hexanoic acid-Thr-Sar-MeLeu-Leu-MeLeu-Ala-D-Hiv-MeLeu-Leu-MeVal]] (cyclo([Hiv][dNMeL][dL][dNMeV][X18][d(aThr)][Sar][NMeL][dL][dNMeL][dA])), the Ki was 25 to 100 nM on cyclophilin A (Cyp A) and 1 to 25 nM at cyclophilin D (Cyp D). The same molecule yielded a solubility at 18 h in series [1] (pH 7.8) of 25 to 50 µM (≈ 33.2 to 66.3 µg/mL).
The corresponding values for `CC[C@H]1NC(=O)[C@@H]([C@H](O)[C@H](C)CCN2CCOCC2)N(C)C(=O)[C@@H](C(C)C)N(C)C(=O)[C@@H](CC(C)C)NC(=O)[C@@H](CC(C)C)N(C)C(=O)[C@H](C(C)C)OC(=O)[C@@H](C)NC(=O)[C@@H](CC(C)C)N(C)C(=O)[C@@H](CC(C)C)NC(=O)[C@H](CC(C)C)N(C)C(=O)CN(C)C1=O` [Example 13, cyclo-[(3R,4R,5S)-4-(hydroxy)-3-methyl-5-(methylamino)-1-N-morpholino-hexanoic acid-Abu-Sar-MeLeu-Leu-MeLeu-Ala-D-Hiv-MeLeu-Leu-MeVal]] (cyclo([Hiv][dNMeL][dL][dNMeV][X16][dAbu][Sar][NMeL][dL][dNMeL][dA])) are 1 to 25 nM, 1 to 25 nM and 25 to 50 µM (≈ 32.3 to 64.5 µg/mL).
Regarding `CC(C)C[C@@H]1C(=O)N[C@H](CC(C)C)C(=O)N(C)[C@H](C(C)C)C(=O)N(C)[C@H]([C@H](O)[C@H](C)CCN(C)CCC#N)C(=O)N[C@H]([C@@H](C)O)C(=O)N(C)CC(=O)N(C)[C@@H](CC(C)C)C(=O)N[C@H](CC(C)C)C(=O)N(C)[C@H](CC(C)C)C(=O)N[C@H](C)C(=O)O[C@@H](C(C)C)C(=O)N1C` [Example 27, cyclo-[(3R,4R,5S)-4-(hydroxy)-3-methyl-5-(methylamino)-1-N-(3-methylamino-propionitrile)-hexanoic acid-Thr-Sar-MeLeu-Leu-MeLeu-Ala-D-Hiv-MeLeu-Leu-MeVal]] (cyclo([Hiv][dNMeL][dL][dNMeV][X11][d(aThr)][Sar][NMeL][dL][dNMeL][dA])), the values for the Ki at cyclophilin A (Cyp A) and on cyclophilin D (Cyp D) were 25 to 100 nM and 1 to 25 nM, respectively. The same molecule showed a solubility at 18 h in series [1] (pH 7.8) greater than 100 µM.
As for `CC(C)C[C@@H]1C(=O)N[C@H](CC(C)C)C(=O)N(C)[C@H](C(C)C)C(=O)N(C)[C@H]([C@H](O)[C@H](C)CCN(Cc2ccccn2)Cc2ccccn2)C(=O)N[C@H]([C@@H](C)O)C(=O)N(C)CC(=O)N(C)[C@@H](CC(C)C)C(=O)N[C@H](CC(C)C)C(=O)N(C)[C@H](CC(C)C)C(=O)N[C@H](C)C(=O)O[C@@H](C(C)C)C(=O)N1C` [Example 30, cyclo-[(3R,4R,5S)-4-(hydroxy)-3-methyl-5-(methylamino)-1-N-(bis-pyridin-2-ylmethyl-amine)-hexanoic acid-Thr-Sar-MeLeu-Leu-MeLeu-Ala-D-Hiv-MeLeu-Leu-MeVal]] (cyclo([Hiv][dNMeL][dL][dNMeV][X13][d(aThr)][Sar][NMeL][dL][dNMeL][dA])), the results for the Ki on cyclophilin A (Cyp A) (setting [2]) and at cyclophilin D (Cyp D) (setting [4]) were 25 to 100 nM and 1 to 25 nM, respectively. The solubility at 18 h in series [1] (setting [3]) was 10 to 25 µM (≈ 14.2 to 35.5 µg/mL).
The corresponding values for `CC(C)C[C@@H]1C(=O)N[C@H](CC(C)C)C(=O)N(C)[C@H](C(C)C)C(=O)N(C)[C@H]([C@H](O)[C@H](C)CCN(C)CC2COCCO2)C(=O)N[C@H]([C@@H](C)O)C(=O)N(C)CC(=O)N(C)[C@@H](CC(C)C)C(=O)N[C@H](CC(C)C)C(=O)N(C)[C@H](CC(C)C)C(=O)N[C@H](C)C(=O)O[C@@H](C(C)C)C(=O)N1C` (stereo partly drawn) [Example 8, cyclo-{(3R,4R,5S)-4-(hydroxy)-3-methyl-5-(methylamino)-1-N-([1,4]dioxan-2-ylmethyl-methyl-amino)-hexanoic acid-Thr-Sar-MeLeu-Leu-MeLeu-Ala-D-Hiv-MeLeu-Leu-MeVal}] (cyclo([Hiv][dNMeL][dL][dNMeV][X24][d(aThr)][Sar][NMeL][dL][dNMeL][dA])) are 25 to 100 nM, 1 to 25 nM and greater than 100 µM.
Take `CC(C)C[C@@H]1C(=O)N[C@H](CC(C)C)C(=O)N(C)[C@H](C(C)C)C(=O)N(C)[C@H]([C@H](O)[C@H](C)CCN2CCC(F)(F)CC2)C(=O)N[C@H]([C@@H](C)O)C(=O)N(C)CC(=O)N(C)[C@@H](CC(C)C)C(=O)N[C@H](CC(C)C)C(=O)N(C)[C@H](CC(C)C)C(=O)N[C@H](C)C(=O)O[C@@H](C(C)C)C(=O)N1C` [Example 24, cyclo-[(3R,4R,5S)-4-(hydroxy)-3-methyl-5-(methylamino)-1-N-(4,4-difluoro-piperidine)-hexanoic acid-Thr-Sar-MeLeu-Leu-MeLeu-Ala-D-Hiv-MeLeu-Leu-MeVal]] (cyclo([Hiv][dNMeL][dL][dNMeV][X20][d(aThr)][Sar][NMeL][dL][dNMeL][dA])): the Ki on cyclophilin A (Cyp A) and at cyclophilin D (Cyp D) was 1 to 25 nM throughout. In addition, the solubility at 18 h in series [1] (pH 7.8) fell in the range of 25 to 50 µM (≈ 33.5 to 67 µg/mL).
As to `Cc1cccc(/C=C/C[C@@H](C)[C@@H](O)[C@@H]2C(=O)N[C@H]([C@@H](C)O)C(=O)N(C)CC(=O)N(C)[C@@H](CC(C)C)C(=O)N[C@H](CC(C)C)C(=O)N(C)[C@H](CC(C)C)C(=O)N[C@H](C)C(=O)O[C@@H](C(C)C)C(=O)N(C)[C@H](CC(C)C)C(=O)N[C@H](CC(C)C)C(=O)N(C)[C@H](C(C)C)C(=O)N2C)n1` [Example 14, cyclo-[(3R,4R,5S)-4-(hydroxy)-3-methyl-5-(methylamino)-1-(6-methyl-pyridin-2-yl)-hept-1-enoic acid-Thr-Sar-MeLeu-Leu-MeLeu-Ala-D-Hiv-MeLeu-Leu-MeVal]] (cyclo([Hiv][dNMeL][dL][dNMeV][X10][d(aThr)][Sar][NMeL][dL][dNMeL][dA])), the Ki on cyclophilin A (Cyp A) and on cyclophilin D (Cyp D) was 1 to 25 nM throughout. This molecule registered a solubility at 18 h in series [1] (pH 7.8) of 10 to 25 µM (≈ 13.2 to 33.1 µg/mL).

The record behind these values is US9382295B2, “Cyclic depsipeptide compounds and their uses” (Cypralis Limited, priority 2012, dated 2016).
